The text below walks through data of patent publication US12642270B2, “Substituted thiophene carboxamides, thiophene carboxylic acids and derivatives thereof” (Bayer Aktiengesellschaft, priority 2019, dated 2026).

The first data set can be described thus: Log P by HPLC on reversed phase columns (EEC directive 79/831 Annex V.A8). The data set is classed as physicochemical. The note with it: LogP method [a]; compounds of formula (I), Table 1.1. Summed up:
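Values come from retention times calibrated against alkan-2-ones (3–16 carbons) by linear interpolation, using reversed-phase LC-UV per EEC directive 79/831 Annex V.A8. Acetonitrile gradient 10–95% with 0.1% formic acid [a], 0.001 M ammonium acetate [b] or 0.1% phosphoric acid [c]; several values within one method separated by "+".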
On to `COC(=O)C(NC(=O)c1cc(C#N)c(Br)s1)C1CC1` (stereo not shown) [1.0402], for which the LogP was 2.50^[a].
The same measure, in the same setting: as for `CCSC(=O)C1(NC(=O)c2cc(I)c(I)s2)CC1` [1.0480], the figure is 3.39^[a]; as for `CCOC(=O)C1(NC(=O)c2sc(C(F)F)c(Br)c2Br)CC1` [1.0522], 3.14^[a].
In the case of `COC(=O)CNC(=S)c1sc(Cl)c(Cl)c1I` [1.0499], the LogP is 4.12^[a].
On the same count and under the same terms, as for `O=C(NC1(C(=O)O)CCC1)c1sc(Br)c(Br)c1Cl` [1.0490], the figure is 2.92^[a]; as for `CC(C)(NC(=O)c1sc(Br)c(Br)c1F)C(=O)O` [1.0523], 2.54^[a]; as for `CCOC(=O)C(NC(=O)c1sc(Br)c(Br)c1F)C1CC1` (stereo not shown) [1.0495], 3.98^[a].
Still for that read-out and setting: as for `CCOC(=O)C1(NC(=O)C2(NC(=O)c3cc(I)c(I)s3)CC2)CC1` [1.0476], the figure is 2.59^[a].
Same read-out and setting: as for `CCOC(=O)C1(NC(=O)c2sc(Br)c(Cl)c2F)CC1` [1.0426], the figure is 3.09^[a]; as for `CSC(=O)C1(NC(=O)c2cc(I)c(I)s2)CC1` [1.0477], 3.04^[a]; as for `COC(=O)CC(C)NC(=O)c1sc(Br)c(Br)c1F` (stereo not shown) [1.0448], 3.14^[a].

Still in this data set, the particulars now being: method [a].
Consider `COC(=O)CNC(=O)c1sc(Cl)c(Br)c1Cl` [1.0177], for which the LogP was 2.85^[a].
Still for that read-out and setting: as for `N#Cc1sc(C(=O)NC2(C(=O)OC3CCC3)CC2)c(Cl)c1Br` [1.0568], the figure is 3.32^[a]; as for `CCOC(=O)C(CO)NC(=O)c1sc(C#N)c(Cl)c1C` (stereo not shown) [1.0835], 2.12^[a]; as for `CCOC(=O)C(C(C)C)N(C)C(=O)c1sc(Br)c(Br)c1F` (stereo not shown) [1.0171], 4.39^[a].
For `CCOC(=O)C(NC(=O)c1sc(Cl)c(Br)c1Br)C(C)C` (stereo not shown) [1.0213], the LogP was 4.89^[a].
On the same count and under the same terms, as for `CCOC(=O)C(COC)NC(=O)c1sc(C#N)c(Br)c1C` (stereo not shown) [1.0792], the figure is 2.80^[a].
Same read-out and setting: as for `CC(C)(C)OC(=O)C1(NC(=O)c2sc(Cl)c(Cl)c2Br)CC(F)(F)C1` [1.0614], the figure is 4.83^[a]; as for `CCOC(=O)[C@H](CO)NC(=O)c1sc(Cl)c(Cl)c1Br` [1.0816], 2.84^[a]; as for `O=C(O)CNC(=O)c1sc(Br)c(Br)c1F` [1.0227], 2.01^[a].
On the same count and under the same terms, as for `CCOC(=O)C(CC1CC1)NC(=O)c1sc(Cl)c(Br)c1C` (stereo not shown) [1.0268], the figure is 4.30^[a]; as for `O=C(NC1(C(=O)OC2CCC2)CCC1)c1sc(Br)c(Br)c1Cl` [1.0908], 4.97^[a]; as for `CC(C)C(C#N)NC(=O)c1sc(Br)c(Br)c1Cl` (stereo not shown) [1.0874], 3.88^[a].
On to `Cc1c(C(=O)NCC(=O)O)sc(C#N)c1Br` [1.0249], for which the LogP is 1.61^[a].
Same read-out and setting: as for `CCCOC(=O)C1(NC(=O)c2sc(Cl)c(Br)c2F)CC1` [1.0643], the figure is 3.52^[a]; as for `Cc1c(C(=O)NC2(C(=O)O)CC2)sc(C#N)c1Br` [1.0250], 1.84^[a].
Same read-out and setting: as for `O=C(NC1(C(=O)OC2CCC2)CC1)c1cc(Br)c(Cl)s1` [1.0607], the figure is 3.46^[a]; as for `COC(=O)CC[C@H](NC(=O)c1sc(Cl)c(Cl)c1Br)C(=O)OC` [1.0549], 3.41^[a]; as for `CCCOC(=O)C1(NC(=O)c2cc(Cl)c(Br)s2)CC1` [1.0598], 3.28^[a].
The same measure, in the same setting: as for `COC(=O)C1(NC(=O)c2cc(Br)c(Cl)s2)CC1` [1.0164], the figure is 2.51^[a]; as for `N#CCNC(=O)c1sc(Br)c(Cl)c1Br` [1.0837], 2.75^[a]; as for `O=C(NC(CO)C(=O)O)c1sc(Br)c(Br)c1F` (stereo not shown) [1.0228], 1.77^[a].
Regarding `O=C(NC1(C(=O)OC2CCCCC2)CCC1)c1sc(Br)c(Br)c1F` [1.0929], the LogP is 5.28^[a].
Regarding `CCOC(=O)CN(OC)C(=O)c1sc(C#N)c(Cl)c1Cl` [1.0845], the LogP was 3.06^[a].
The same measure, in the same setting: as for `COC(=O)C(CC(F)F)NC(=O)c1sc(Cl)c(Br)c1Br` (stereo not shown) [1.0214], the figure is 3.64^[a]; as for `COC(=O)CNC(=S)c1cc(Br)c(Cl)s1` [1.0878], 3.35^[a]; as for `CCOC(=O)C(NC(=O)c1sc(Br)c(Br)c1C#N)C(=O)OCC` [1.0805], 3.39^[a].
Same read-out and setting: as for `CCOC(=O)C(NC(=O)c1sc(C#N)c(Cl)c1Cl)C(C)C` (stereo not shown) [1.0575], the figure is 3.89^[a]; as for `O=C(NC(C(=O)OC1CCC1)C1CC1)c1sc(Br)c(Br)c1Cl` (stereo not shown) [1.0885], 5.08^[a]; as for `O=C(O)CNC(=S)c1sc(Br)c(Br)c1Cl` [1.0861], 3.08^[a].

The same data set, now with this note: method [a]: LC-UV, acidic range, 0.1% formic acid in water and acetonitrile.
For the molecule `O=C1CC(NC(=O)c2cc(Br)c(Cl)s2)CCN1` (stereo not shown) [I.0223], the LogP was 1.80^[a].
Still for that read-out and setting: as for `COC(=O)c1sc(C#N)c(Cl)c1Br` [II.096], the figure is 3.04^[a]; as for `CCOC(=O)c1sc(I)c(Br)c1C` [II.030], 5.03^[a].
On the same count and under the same terms, as for `O=C(NC1CCOC1=O)c1sc(Cl)c(Cl)c1C(F)F` (stereo not shown) [I.0747], the figure is 2.40^[a].
Same read-out and setting: as for `CCOC(=O)c1sc(Cl)c(C#N)c1Br` [II.093], the figure is 3.46^[a].
In the case of `N#Cc1sc(C(=O)O)c(Cl)c1Br` [II.087], the LogP was 1.55^[a].
As for `COC(=O)c1cc(F)c(Br)s1` [II.049], the LogP was 3.04^[a].
As for `CC[C@H](C)[C@H](NC(=O)c1sc(Cl)c(Br)c1C)C(=O)OC` [I.0123], the LogP is 4.27^[a].
The same measure, in the same setting: as for `Cc1c(C(=O)O)sc(Cl)c1C#N` [II.008], the figure is 1.94^[a].

The same data set, now with this note: method [a]: LC-UV, acidic range, 0.1% formic acid in water and acetonitrile; listed as 1.0958.
Take `O=C(NC1CCOC1=O)c1sc(Br)c(Br)c1F` (stereo not shown) [I.0958]: the LogP is 2.28^[a].

The same data set, now with this note: method [a]; compounds of formula (I), Table 1.1.
Turning to `COC(=O)[C@H](CCCNC(=N)N)NC(=O)c1sc(Cl)c(Br)c1C` [1.0127], the LogP is 1,66^[a].
Same read-out and setting: as for `COC(=O)C1(NC(=O)c2sc(Br)c(Cl)c2C)CSC1` [1.0042], the figure is 3.25^[a].
Still for that read-out and setting: as for `COC(=O)C(NC(=O)c1sc(Br)c(Cl)c1C)C1CC1` (stereo not shown) [1.0120], the figure is 3.35^[a]; as for `CCOC(=O)C(CO)NC(=O)c1sc(Cl)c(Br)c1C` (racemic) [1.0019], 2.54^[a]; as for `CCOC(=O)CNC(=O)c1sc(Cl)c(Br)c1C` [1.0063], 2.98^[a].

Staying with this data set, now noted: method marked [a].
Consider `CCOC(=O)C(NC(=O)c1sc(Cl)c(Cl)c1C#N)C(=O)OCC` [1.0774], for which the LogP is 3.40^[a].
Still for that read-out and setting: as for `CCOC(=O)C(NC(=O)c1sc(F)c(Br)c1Br)C(C)C` (stereo not shown) [1.0709], the figure is 4.48^[a].
The same measure, in the same setting: as for `CCOC(=O)C(C)NC(=O)c1sc(Cl)c(Cl)c1F` (stereo not shown) [1.0345], the figure is 3.34^[a].
The same measure, in the same setting: as for `CCOC(=O)C(CSC)NC(=O)c1sc(C#N)c(Br)c1C` (stereo not shown) [1.0769], the figure is 3.26^[a]; as for `CCOC(=O)C1(NC(=O)c2cc(Br)c(C(F)(F)F)s2)CCC1` [1.0723], 3.70^[a].
For the molecule `COC(=O)C1(NC(=O)c2sc(Br)c(C#N)c2Cl)CC1` [1.0692], the LogP is 2.37^[a].
The same measure, in the same setting: as for `CCOC(=O)C1(NC(=O)c2sc(Cl)c(C#N)c2Cl)CC1` [1.0394], the figure is 2.69^[a]; as for `CCOC(=O)C(CSC)NC(=O)c1sc(C#N)c(Cl)c1Cl` (stereo not shown) [1.0752], 3.54^[a].
Regarding `COC(=O)C(CCSC)NC(=O)c1sc(C#N)c(Br)c1C` (stereo not shown) [1.0751], the LogP was 3.06^[a].
Take `COC(=O)[C@H](CCC(=O)O)NC(=O)c1sc(Br)c(Br)c1F` [1.0330]: the LogP was 2.36^[a].
As for `CCOC(=O)C(CCSC)NC(=O)c1sc(Br)c(Br)c1C(F)F` (stereo not shown) [1.0363], the LogP is 3.89^[a].
Still for that read-out and setting: as for `CCOC(=O)C(C#N)NC(=O)c1sc(Br)c(Br)c1Cl` (stereo not shown) [1.0741], the figure is 3.34^[a].
As for `CCOC(=O)C(CSC)NC(=O)c1sc(Cl)c(Cl)c1C#N` (stereo not shown) [1.0754], the LogP was 3.37^[a].
Same read-out and setting: as for `O=C(NC1(C(=O)O)CC1)c1sc(Br)c(Cl)c1F` [1.0703], the figure is 2.14^[a]; as for `CCOC(=O)C(Cc1ccccc1)NC(=O)c1sc(Br)c(Br)c1C(F)F` (stereo not shown) [1.0364], 4.34^[a]; as for `CCOC(=O)C(C#N)NC(=O)c1sc(C#N)c(Br)c1C` (stereo not shown) [1.0742], 2.66^[a].
Turning to `CCOC(=O)C(NC(=O)c1sc(Cl)c(Cl)c1F)C(C)C` (stereo not shown) [1.0348], the LogP is 4.37^[a].
Turning to `CCCOC(=O)C1(NC(=O)c2sc(Br)c(Cl)c2C)CC1` [1.0704], the LogP was 3.62^[a].
Same read-out and setting: as for `COC(=O)CNC(=O)c1cc(Br)c(F)s1` [1.0295], the figure is 2.01^[a]; as for `COC(=O)C1(NC(=O)c2sc(Cl)c(Cl)c2C#N)CCC1` [1.0686], 2.79^[a].
Consider `CCOC(=O)CNC(=O)c1cc(C#N)c(Cl)s1` [1.0379], for which the LogP was 2.08^[a].
Same read-out and setting: as for `CC(C)(C)OC(=O)C1(NC(=O)c2sc(Br)c(Br)c2Cl)CC(F)(F)C1` [1.0757], the figure is 4.89^[a]; as for `CCOC(=O)C1(NC(=O)c2sc(Br)c(Br)c2C(F)(F)F)CCC1` [1.0372], 3.67^[a].

The data set is the same for the next values; noted with them: method marker [a] given with each value; Table 1.1, compounds of formula (I).
Regarding `COC(=O)[C@H](CC(=O)O)NC(=O)c1sc(Br)c(Br)c1F` [1.1043], the LogP was 2.28^[a].
`N#CC1(NC(=O)c2sc(Br)c(Br)c2F)CCCSC1` (stereo not shown) [1.1056]: the LogP was 3.41^[a].
Still for that read-out and setting: as for `Cc1c(C(=O)NCC(=O)OC2CC2)sc(C#N)c1Br` [1.0993], the figure is 2.54^[a]; as for `COC(=O)[C@H](CC(N)=O)NC(=O)c1sc(Cl)c(Cl)c1Br` [1.1047], 2.23^[a]; as for `CCOC(=O)CN(C(=O)c1sc(Br)c(Br)c1F)C1CC1` [1.0938], 3.64^[a].
Still for that read-out and setting: as for `Cc1c(C(=O)NC2(C(=O)OC3CCC3)CC2)sc(C#N)c1Br` [1.0968], the figure is 3.13^[a].

The data set is the same for the next values; noted with them: reversed phase HPLC columns, value in preparation example, method not marked.
`CCSC(=O)C1(NC(=O)c2sc(Br)c(Br)c2I)CC1` [I.0139, S-ethyl 1-{[(4,5-dibromo-3-iodo-2-thienyl)carbonyl]amino}cyclopropanecarbothioate] yielded a chromatographic logP of 3.96.

A word on the chromatographic logP: it is a lipophilicity value derived from retention on a column. Higher therefore signals higher lipophilicity.
